Laboratory results taken from US20130254944A1, “Herbicide Tolerant Soybeans and Methods of Use” (PIONEER HI BRED INTERNATIONAL INC, priority 2012, published 2013).

Legend:
Type in all cases: in vivo
wild type soybean = test: Greenhouse postemergence test of ALS-inhibiting herbicides, wild type soybean
Experimental: (§1) Soybean lines having wild type als1 & 2 genes, the Als1 mutation, the Als2 mutation, or both the Als1 and Als2 mutations were evaluated for their response to various herbicides. Two seeds from each line were planted into 4-inch pots containing Redi-Earth potting mix (Sun Gro Horticulture Canada Ltd. 52130 RR65, Seba Beach, Alberta TOE 2B0), with two replications planted for each treatment. Pots were placed in flats at 15 pots/flat, and the resulting plants were grown in a greenhouse environment supplemented with lighting (16 hr photoperiod) for the duration of the test. Selected herbicides representing the mode of action that inhibits the acetolactate synthase enzyme, also known as the acetohydroxyacid synthase enzyme, were applied postemergence to soybean when soybean plants were at the V2 growth stage, which is the stage at which the first two trifoliolate leaves were expanded.
(§2) Eleven active ingredients representing the five chemical families with herbicidal activity on the acetolactate synthase enzyme were tested. These herbicides can cause a phytotoxic response in wild type soybean plants. The five chemical families tested were sulfonylaminocarbonyltriazolinone (also known as triazolinone), imidazolinone, sulfonylurea, pyrimidinylthiobenzoate, and triazolopyrimidine. Application rates ranged from 0.5 times to eight times the currently labeled application rate for each active ingredient with spray application volume at 30 gallons/acre. The application rates tested were 0.5×, 1×, 2×, 4× and 8× the label rate for each herbicide. Herbicidal active ingredients were applied as formulated materials dispersed in water containing 0.25% nonionic surfactant (Trend® 90).
(§3) The test was evaluated by visually scoring plant phenotype 14 days after the herbicides were applied. Controls consisted of soybean plants of the same variety that received no herbicide treatments for each of all the varieties tested. Soybean response was recorded on a zero to 100 visual scale in which zero is no phytotoxic response and 100 is plant death fourteen days after the herbicides were applied. Soybean response (percent phytotoxicity) to postemergence applications of herbicides inhibiting the acetolactate synthase enzyme test results are shown in Table 1.

[1] = tested on: soybean having the Als2 mutation; test: Greenhouse postemergence test of ALS-inhibiting herbicides, soybean with Als2 mutation; conditions: for phytotoxic response (in words), Als2: rates 0.5x to 8x the label rate; for Avg response (% phytotoxicity), Trait Als2: Table 2
Experimental: as §1, §2, §3
(§4) Results in Table 1 were evaluated using the isobole method for analyzing interactions. […] Here the biologically active agents that are being assessed for interaction (synergy) are gene mutations in soybean. The effectiveness of the genes in providing improved tolerance to ALS-inhibiting herbicides was assessed by applying increasing doses of herbicides to each soybean line with its mutation(s).
(§5) An isobole reduces a dose response surface in three dimensional space to a two dimensional plot by fixing a defined response level (e.g., 50% response). The isobole plot is a graph in the Cartesian plane with a straight line connecting the isoeffective rates of the individual components of the combination. This straight line represents expected responses for zero interactive combinations. The isoeffective rate used to create the isobole is often the EC50, the rate estimated to elicit 50% response, but other ECx values can be used. Since the isobole method is based on the potency of the components of the combination, an experimental design testing a range of rates expected to elicit the full range of responses (e.g., 0 to maximum response) is best. (Ferry et al. (2005) 2005 Conference on Applied Statistics in Agriculture Proceedings pp 33-50, Manhattan, Kans., Kansas State Univ.; Green and Streibig (1993) Herbicide Mixtures, pp 117-134 in Herbicide Bioassays, Streibig and Hudsk Eds, CRC, Boca Raton, Fla.).
(§6) Loglogistic dose response curves were fit to percent phytotoxicity response data using log 10 of dose (McCullagh and Nelder (1989) Generalized Linear Models, Chapman & Hall, London). Curves were fit using the logit link with normal errors. […]

[2] = tested on: soybean having the Als1 mutation; test: Greenhouse postemergence test of ALS-inhibiting herbicides, soybean with Als1 mutation; conditions: for phytotoxic response (in words), Als1: rates 0.5x to 8x the label rate; for Avg response (% phytotoxicity), Trait Als1: Table 2
Experimental: as §1, §2, §3, §4, §5, §6

[3] = tested on: soybean having both the Als1 and Als2 mutations; test: Greenhouse postemergence test of ALS-inhibiting herbicides and isobole analysis, soybean with Als1 and Als2 mutations; conditions: for phytotoxic response (in words), Als1+Als2: rates 0.5x to 8x the label rate; for Avg response (% phytotoxicity), Trait Als1 + Als2: Table 2
Experimental: as §1, §2, §3, §4, §5, §6

[4] = 8.75 g ai/ha postemergence at V2, scored 14 days after application
[5] = 17.5 g ai/ha postemergence at V2, scored 14 days after application
[6] = 35 g ai/ha postemergence at V2, scored 14 days after application
[7] = 70 g ai/ha postemergence at V2, scored 14 days after application
[8] = 140 g ai/ha postemergence at V2, scored 14 days after application
[9] = 280 g ai/ha postemergence at V2, scored 14 days after application
[10] = rate of herbicide estimated to cause 10% phytotoxic response, loglogistic fit
[11] = rate of herbicide estimated to cause 50% phytotoxic response, loglogistic fit

COc1cc(Cl)nc(NC(=O)NS(=O)(=O)c2ccccc2C(=O)O)n1 [Chlorimuron]
Soybean response (percent phytotoxicity), Wild type (wild type soybean; [4]): 0% | Soybean response (percent phytotoxicity), Wild type (wild type soybean; [5]): 5% | Soybean response (percent phytotoxicity), Wild type (wild type soybean; [6]): 20% | Soybean response (percent phytotoxicity), Wild type (wild type soybean; [7]): 35% | Soybean response (percent phytotoxicity), Wild type (wild type soybean; [8]): 45% | Soybean response (percent phytotoxicity), Als2 [1, 4]: 0% | Soybean response (percent phytotoxicity), Als2 [1, 5]: 0% | Soybean response (percent phytotoxicity), Als2 [1, 6]: 0% | Soybean response (percent phytotoxicity), Als2 [1, 7]: 0% | Soybean response (percent phytotoxicity), Als2 [1, 8]: 0% | phytotoxic response (in words), Als2 [1]: did not cause any phytotoxic response | Soybean response (percent phytotoxicity), Als1 [2, 4]: 0% | Soybean response (percent phytotoxicity), Als1 [2, 5]: 0% | Soybean response (percent phytotoxicity), Als1 [2, 6]: 0% | Soybean response (percent phytotoxicity), Als1 [2, 7]: 0% | Soybean response (percent phytotoxicity), Als1 [2, 8]: 0% | phytotoxic response (in words), Als1 [2]: did not cause any phytotoxic response | Soybean response (percent phytotoxicity), Als1 + Als2 [3, 4]: 0% | Soybean response (percent phytotoxicity), Als1 + Als2 [3, 5]: 0% | Soybean response (percent phytotoxicity), Als1 + Als2 [3, 6]: 0% | Soybean response (percent phytotoxicity), Als1 + Als2 [3, 7]: 0% | Soybean response (percent phytotoxicity), Als1 + Als2 [3, 8]: 0% | phytotoxic response (in words), Als1+Als2 [3]: did not cause any phytotoxic response

CCOc1nc(F)cc2nc(S(=O)(=O)Nc3c(Cl)cccc3C(=O)OC)nn12 [Cloransulam methyl]
Soybean response (percent phytotoxicity), Wild type (wild type soybean; [4]): 0% | Soybean response (percent phytotoxicity), Wild type (wild type soybean; [5]): 0% | Soybean response (percent phytotoxicity), Wild type (wild type soybean; [6]): 0% | Soybean response (percent phytotoxicity), Wild type (wild type soybean; [7]): 5% | Soybean response (percent phytotoxicity), Wild type (wild type soybean; [8]): 15% | Soybean response (percent phytotoxicity), Als2 [1, 4]: 0% | Soybean response (percent phytotoxicity), Als2 [1, 5]: 0% | Soybean response (percent phytotoxicity), Als2 [1, 6]: 0% | Soybean response (percent phytotoxicity), Als2 [1, 7]: 0% | Soybean response (percent phytotoxicity), Als2 [1, 8]: 0% | phytotoxic response (in words), Als2 [1]: did not cause any phytotoxic response | Soybean response (percent phytotoxicity), Als1 [2, 4]: 0% | Soybean response (percent phytotoxicity), Als1 [2, 5]: 0% | Soybean response (percent phytotoxicity), Als1 [2, 6]: 0% | Soybean response (percent phytotoxicity), Als1 [2, 7]: 0% | Soybean response (percent phytotoxicity), Als1 [2, 8]: 0% | phytotoxic response (in words), Als1 [2]: did not cause any phytotoxic response | Soybean response (percent phytotoxicity), Als1 + Als2 [3, 4]: 0% | Soybean response (percent phytotoxicity), Als1 + Als2 [3, 5]: 0% | Soybean response (percent phytotoxicity), Als1 + Als2 [3, 6]: 0% | Soybean response (percent phytotoxicity), Als1 + Als2 [3, 7]: 0% | Soybean response (percent phytotoxicity), Als1 + Als2 [3, 8]: 0% | phytotoxic response (in words), Als1+Als2 [3]: did not cause any phytotoxic response

COc1nn(C(=O)NS(=O)(=O)c2ccccc2OC(F)(F)F)c(=O)n1C [Flucarbazone]
Soybean response (percent phytotoxicity), Wild type (wild type soybean; [5]): 60% | Soybean response (percent phytotoxicity), Wild type (wild type soybean; [6]): 80% | Soybean response (percent phytotoxicity), Wild type (wild type soybean; [7]): 90% | Soybean response (percent phytotoxicity), Wild type (wild type soybean; [8]): 98% | Soybean response (percent phytotoxicity), Wild type (wild type soybean; [9]): 98% | Soybean response (percent phytotoxicity), Als2 [1, 5]: 5% | Avg response (% phytotoxicity), Trait Als2 ([1]; 17.5 g ai/ha): 5% | Soybean response (percent phytotoxicity), Als2 [1, 6]: 15% | Avg response (% phytotoxicity), Trait Als2 ([1]; 35 g ai/ha): 30% | Soybean response (percent phytotoxicity), Als2 [1, 7]: 20% | Avg response (% phytotoxicity), Trait Als2 ([1]; 70 g ai/ha): 50% | Soybean response (percent phytotoxicity), Als2 [1, 8]: 25% | Avg response (% phytotoxicity), Trait Als2 ([1]; 140 g ai/ha): 55% | Soybean response (percent phytotoxicity), Als2 [1, 9]: 30% | Avg response (% phytotoxicity), Trait Als2 ([1]; 280 g ai/ha): 60% | EC10, Als2 [1, 10]: 8.14 g ai/ha | Soybean response (percent phytotoxicity), Als1 [2, 5]: 0% | Avg response (% phytotoxicity), Trait Als1 ([2]; 17.5 g ai/ha): 0% | Soybean response (percent phytotoxicity), Als1 [2, 6]: 0% | Avg response (% phytotoxicity), Trait Als1 ([2]; 35 g ai/ha): 0% | Soybean response (percent phytotoxicity), Als1 [2, 7]: 5% | Avg response (% phytotoxicity), Trait Als1 ([2]; 70 g ai/ha): 5% | Soybean response (percent phytotoxicity), Als1 [2, 8]: 10% | Avg response (% phytotoxicity), Trait Als1 ([2]; 140 g ai/ha): 10% | Soybean response (percent phytotoxicity), Als1 [2, 9]: 10% | Avg response (% phytotoxicity), Trait Als1 ([2]; 280 g ai/ha): 10% | EC10, Als1 [2, 10]: 230.45 g ai/ha | Soybean response (percent phytotoxicity), Als1 + Als2 [3, 5]: 0% | Avg response (% phytotoxicity), Trait Als1 + Als2 ([3]; 17.5 g ai/ha): 0% | Soybean response (percent phytotoxicity), Als1 + Als2 [3, 6]: 0% | Avg response (% phytotoxicity), Trait Als1 + Als2 ([3]; 35 g ai/ha): 0% | Soybean response (percent phytotoxicity), Als1 + Als2 [3, 7]: 0% | Avg response (% phytotoxicity), Trait Als1 + Als2 ([3]; 70 g ai/ha): 0% | Soybean response (percent phytotoxicity), Als1 + Als2 [3, 8]: 0% | Avg response (% phytotoxicity), Trait Als1 + Als2 ([3]; 140 g ai/ha): 0% | Soybean response (percent phytotoxicity), Als1 + Als2 [3, 9]: 0% | Avg response (% phytotoxicity), Trait Als1 + Als2 ([3]; 280 g ai/ha): 0% | EC10, Als1 + Als2 [3, 10]: >280 g ai/ha

CC(C)C1(C)N=C(c2ncccc2C(=O)O)NC1=O (centres unmarked) [Imazapyr]
Soybean response (percent phytotoxicity), Wild type (wild type soybean; [4]): 10% | Soybean response (percent phytotoxicity), Wild type (wild type soybean; [5]): 40% | Soybean response (percent phytotoxicity), Wild type (wild type soybean; [6]): 75% | Soybean response (percent phytotoxicity), Wild type (wild type soybean; [7]): 90% | Soybean response (percent phytotoxicity), Wild type (wild type soybean; [8]): 98% | Soybean response (percent phytotoxicity), Als2 [1, 4]: 5% | Avg response (% phytotoxicity), Trait Als2 ([1]; 8.75 g ai/ha): 5% | Soybean response (percent phytotoxicity), Als2 [1, 5]: 20% | Avg response (% phytotoxicity), Trait Als2 ([1]; 17.5 g ai/ha): 20% | Soybean response (percent phytotoxicity), Als2 [1, 6]: 25% | Avg response (% phytotoxicity), Trait Als2 ([1]; 35 g ai/ha): 25% | Soybean response (percent phytotoxicity), Als2 [1, 7]: 50% | Avg response (% phytotoxicity), Trait Als2 ([1]; 70 g ai/ha): 50% | Soybean response (percent phytotoxicity), Als2 [1, 8]: 55% | Avg response (% phytotoxicity), Trait Als2 ([1]; 140 g ai/ha): 55% | EC50, Als2 [1, 11]: 93.91 g ai/ha | Soybean response (percent phytotoxicity), Als1 [2, 4]: 0% | Avg response (% phytotoxicity), Trait Als1 ([2]; 8.75 g ai/ha): 0% | Soybean response (percent phytotoxicity), Als1 [2, 5]: 10% | Avg response (% phytotoxicity), Trait Als1 ([2]; 17.5 g ai/ha): 10% | Soybean response (percent phytotoxicity), Als1 [2, 6]: 45% | Avg response (% phytotoxicity), Trait Als1 ([2]; 35 g ai/ha): 45% | Soybean response (percent phytotoxicity), Als1 [2, 7]: 80% | Avg response (% phytotoxicity), Trait Als1 ([2]; 70 g ai/ha): 80% | Soybean response (percent phytotoxicity), Als1 [2, 8]: 98% | Avg response (% phytotoxicity), Trait Als1 ([2]; 140 g ai/ha): 98% | EC50, Als1 [2, 11]: 38.86 g ai/ha | Soybean response (percent phytotoxicity), Als1 + Als2 [3, 4]: 0% | Avg response (% phytotoxicity), Trait Als1 + Als2 ([3]; 8.75 g ai/ha): 0% | Soybean response (percent phytotoxicity), Als1 + Als2 [3, 5]: 0% | Avg response (% phytotoxicity), Trait Als1 + Als2 ([3]; 17.5 g ai/ha): 0% | Soybean response (percent phytotoxicity), Als1 + Als2 [3, 6]: 0% | Avg response (% phytotoxicity), Trait Als1 + Als2 ([3]; 35 g ai/ha): 0% | Soybean response (percent phytotoxicity), Als1 + Als2 [3, 7]: 40% | Avg response (% phytotoxicity), Trait Als1 + Als2 ([3]; 70 g ai/ha): 40% | Soybean response (percent phytotoxicity), Als1 + Als2 [3, 8]: 55% | Avg response (% phytotoxicity), Trait Als1 + Als2 ([3]; 140 g ai/ha): 55% | EC50, Als1 + Als2 [3, 11]: 112.81 g ai/ha
